Values joined by “and” are separate entries in the source; they are usually repeats but may differ in a detail not shown here. Identical values can stand only once. Like-named read-outs stand apart in the source and are kept apart here.
Assays:
M07e [1] = assay: cells; parameters: species or system AML cell lines (8); Secondary HTS, 10-point dose-response in triplicate, Cell Titer Glo viability, four-parameter fit EC50; conditions: M-07e, 72 h, read-out: M07e
CMS [2] = assay: Secondary dose-response HTS, Cell Titer Glo; type: cell-based, human; conditions: Homo sapiens, HTS, read-out: average effective concentration, CMS
CMK [3] = assay: Secondary dose-response HTS, Cell Titer Glo; type: cell-based, human; conditions: Homo sapiens, CMK, read-out: average effective concentration, CMK
MOLM-13 [4] = assay: cells; parameters: species or system AML cell lines (8); Secondary HTS, 10-point dose-response in triplicate, Cell Titer Glo viability, four-parameter fit EC50; conditions: Homo sapiens, MOLM-13, 72 h, read-out: MOLM-13
MV4-11 [5] = assay: cells; parameters: species or system AML cell lines (8); Secondary HTS, 10-point dose-response in triplicate, Cell Titer Glo viability, four-parameter fit EC50; conditions: Homo sapiens, MV4-11, 72 h, read-out: MV4-11
ML-2 [6] = assay: cells; parameters: species or system AML cell lines (8); Secondary HTS, 10-point dose-response in triplicate, Cell Titer Glo viability, four-parameter fit EC50; conditions: Homo sapiens, ML-2, 72 h, read-out: ML-2
U937 [7] = assay: cells; parameters: species or system AML cell lines (8); Secondary HTS, 10-point dose-response in triplicate, Cell Titer Glo viability, four-parameter fit EC50; conditions: Homo sapiens, U-937, 72 h, read-out: U937
CHRF288-11 [8] = assay: cells; parameters: species or system AML cell lines (8); Secondary HTS, 10-point dose-response in triplicate, Cell Titer Glo viability, four-parameter fit EC50; conditions: 72 h, read-out: CHRF288-11
MV4-11 [9] = assay: Secondary dose-response HTS, Cell Titer Glo; type: cell-based, human; conditions: Homo sapiens; secondary high-throughput screen; MV4-11; read-out: average effective concentration, MV4-11
CMK [10] = assay: cells; parameters: species or system AML cell lines (8); Secondary HTS, 10-point dose-response in triplicate, Cell Titer Glo viability, four-parameter fit EC50; conditions: Homo sapiens, CMK, 72 h, read-out: CMK
CMS [11] = assay: cells; parameters: species or system AML cell lines (8); Secondary HTS, 10-point dose-response in triplicate, Cell Titer Glo viability, four-parameter fit EC50; conditions: 72 h, read-out: CMS
M07e [12] = test system: M07e; parameters: species or system AML cell lines (8); Primary HTS, single concentration about 10 uM, Cell Titer Glo viability; log10 luminescence, per cent inhibition relative to cycloheximide control; conditions: 72 h, relative to cycloheximide control, log10 luminescence, inhibitor
CHRF288-11 [13] = test system: CHRF288-11; parameters: species or system AML cell lines (8); Primary HTS, single concentration about 10 uM, Cell Titer Glo viability; log10 luminescence, per cent inhibition relative to cycloheximide control; conditions: 72 h, relative to cycloheximide control, log10 luminescence; inhibitor
MOLM-13 [14] = test system: MOLM-13; parameters: species or system AML cell lines (8); Primary HTS, single concentration about 10 uM, Cell Titer Glo viability; log10 luminescence, per cent inhibition relative to cycloheximide control; conditions: 72 h, relative to cycloheximide control, log10 luminescence, inhibitor
CMS [15] = test system: CMS; parameters: species or system AML cell lines (8); Primary HTS, single concentration about 10 uM, Cell Titer Glo viability; log10 luminescence, per cent inhibition relative to cycloheximide control; conditions: 72 h, relative to cycloheximide control, log10 luminescence, inhibitor
CMK [16] = test system: CMK; parameters: species or system AML cell lines (8); Primary HTS, single concentration about 10 uM, Cell Titer Glo viability; log10 luminescence, per cent inhibition relative to cycloheximide control; conditions: 72 h, relative to cycloheximide control, log10 luminescence, inhibitor
MV4-11 [17] = test system: MV4-11; parameters: species or system AML cell lines (8); Primary HTS, single concentration about 10 uM, Cell Titer Glo viability; log10 luminescence, per cent inhibition relative to cycloheximide control; conditions: 72 h, relative to cycloheximide control, log10 luminescence, inhibitor
U937 [18] = test system: U937; parameters: species or system AML cell lines (8); Primary HTS, single concentration about 10 uM, Cell Titer Glo viability; log10 luminescence, per cent inhibition relative to cycloheximide control; conditions: 72 h, relative to cycloheximide control, log10 luminescence, inhibitor
ML-2 [19] = test system: ML-2; parameters: species or system AML cell lines (8); Primary HTS, single concentration about 10 uM, Cell Titer Glo viability; log10 luminescence, per cent inhibition relative to cycloheximide control; conditions: 72 h, relative to cycloheximide control, log10 luminescence, inhibitor
M07e [20] = assay: Secondary dose-response HTS, Cell Titer Glo; type: cell-based, human; conditions: Homo sapiens, M-07e; secondary high-throughput screen; M07e; read-out: average effective concentration, M07e
U937 [21] = assay: Secondary dose-response HTS, Cell Titer Glo; type: cell-based, human; conditions: Homo sapiens, U-937; secondary high-throughput screen; U937; read-out: average effective concentration, U937
MOLM-13 [22] = assay: Secondary dose-response HTS, Cell Titer Glo; type: cell-based, human; conditions: Homo sapiens; secondary high-throughput screen; MOLM-13; read-out: average effective concentration, MOLM-13
[23] = secondary high-throughput screen, CMS

EC50 (MOLM-13 [4])	EC50 (MV4-11 [5])	EC50 (U937 [7])	Structure (SMILES)	EC50 (M07e [1])	EC50 (ML-2 [6])	EC50 (CHRF288-11 [8])	EC50 (CMK [10])	EC50 (CMS [11])	EC50 (M07e [20])	further results
> 10 µM	> 10 µM	> 10 µM	Cc1cc(Nc2nc(N[C@@H](C)c3ncc(F)cn3)ncc2Cl)n[nH]1 [AZD1480]	> 10 µM	> 10 µM	> 10 µM	–	–	–	EC50 (CMS [2]; [23]): 3.3 µM; EC50 (CMK [3]; secondary high-throughput screen): > 10 µM
> 10 µM	–	> 10 µM	NC(=O)[C@@H](CCC(F)(F)F)N(Cc1ccc(-c2ncon2)cc1F)S(=O)(=O)c1ccc(Cl)cc1 [BMS-708163]	> 10 µM	> 10 µM	> 10 µM	> 10 µM	> 10 µM	–	EC50 (MV4-11 [9]): > 10 µM
> 10 µM	–	> 10 µM	O=c1[nH]cc(F)c(=O)[nH]1 [Compound 5-FLUOROURACIL]	> 10 µM	> 10 µM	> 10 µM	> 10 µM	> 10 µM	–	EC50 (MV4-11 [9]): > 10 µM
0.0955 µM	0.125 µM	> 10 µM	Cc1cc(Nc2cc(N3CCN(C)CC3)nc(/C=C/c3ccccc3)n2)n[nH]1 [ENMD-2076]	> 10 µM	> 10 µM	> 10 µM	–	–	–	EC50 (CMS [2]): 3.2 µM; EC50 (CMK [3]): 0.11 µM
> 10 µM	–	> 10 µM	C[C@]1(O)C[C@@H](c2nc(-c3ccc4ccc(-c5ccccc5)nc4c3)c3c(N)nccn32)C1 [LINSITINIB]	> 10 µM	> 10 µM	> 10 µM	> 10 µM	> 10 µM	–	M07e %inh (M07e [12]): 2.638%; EC50 (MV4-11 [9]): > 10 µM; CHRF288-11 %inh (CHRF288-11 [13]): 34.61%; MOLM-13 %inh (MOLM-13 [14]): 2.501%; CMS %inh (CMS [15]): 2.626%; CMK %inh (CMK [16]): 18.57%; MV4-11 %inh (MV4-11 [17]): 7.816%; U937 %inh (U937 [18]): 2.082%; ML-2 %inh (ML-2 [19]): 11.6%
0.0058 µM	> 10 µM	> 10 µM	Cc1ccc(C(=O)Nc2ccc(Oc3cc4cnn(C)c4cc3-c3cn[nH]c3)c(F)c2)c(=O)n1-c1ccc(F)cc1 [Merestinib]	–	> 10 µM	> 10 µM	> 10 µM	> 10 µM	0.025 µM	–
> 10 µM	> 10 µM	> 10 µM	Cc1cn(-c2cc(NC(=O)c3ccc(C)c(Nc4nccc(-c5cccnc5)n4)c3)cc(C(F)(F)F)c2)cn1 [NILOTINIB]	–	> 10 µM	> 10 µM	> 10 µM	> 10 µM	> 10 µM	–
> 10 µM	> 10 µM	> 10 µM	CCCc1nc(C(C)(C)O)c(C(=O)OCc2oc(=O)oc2C)n1Cc1ccc(-c2ccccc2-c2nnn[nH]2)cc1 [OLMESARTAN MEDOXOMIL]	–	> 10 µM	> 10 µM	> 10 µM	> 10 µM	5.8 µM	M07e %inh (M07e [12]; M07e %inh, 10 µM): -0.6363% and -1.428%; MOLM-13 %inh (MOLM-13 [14]; MOLM-13 %inh, 10 µM): 3.566% and -1.782%; CMS %inh (CMS [15]; CMS %inh, 10 µM): -4.154% and -3.286%; CMK %inh (CMK [16]; CMK %inh, 10 µM): 0.5387% and -8.221%; MV4-11 %inh (MV4-11 [17]; MV4-11 %inh, 10 µM): 1.21% and -0.1295%; U937 %inh (U937 [18]; U937 %inh, 10 µM): -0.6807% and -1.42%; ML-2 %inh (ML-2 [19]; ML-2 %inh, 10 µM): 0.6032% and 1.808%
–	–	–	CO[C@H]1C[C@@H]2CC[C@@H](C)[C@@](O)(O2)C(=O)C(=O)N2CCCC[C@H]2C(=O)O[C@H]([C@H](C)C[C@@H]2CC[C@@H](O)[C@H](OC)C2)CC(=O)[C@H](C)/C=C(\C)[C@@H](O)[C@@H](OC)C(=O)[C@H](C)C[C@H](C)/C=C/C=C/C=C/1C [SIROLIMUS]	> 10 µM	> 10 µM	> 10 µM	> 10 µM	–	–	EC50 (CMS [2]; [23]): > 10 µM; EC50 (MV4-11 [9]): 0.001 µM; EC50 (U937 [21]): 0.001 µM; EC50 (MOLM-13 [22]): > 10 µM
> 10 µM	> 10 µM	> 10 µM	COc1cccc2c1c(O)c(C(=O)N(C)c1ccc(C(F)(F)F)cc1)c(=O)n2C [TASQUINIMOD]	–	> 10 µM	> 10 µM	> 10 µM	> 10 µM	1.2 µM	–
> 10 µM	–	> 10 µM	COc1cc2nccc(Oc3ccc(NC(=O)Nc4cc(C)on4)c(Cl)c3)c2cc1OC [TIVOZANIB]	> 10 µM	> 10 µM	> 10 µM	> 10 µM	> 10 µM	–	EC50 (MV4-11 [9]): 7.8 µM
> 10 µM	> 10 µM	> 10 µM	CCCS(=O)(=O)Nc1ccc(F)c(C(=O)c2c[nH]c3ncc(-c4ccc(Cl)cc4)cc23)c1F [VEMURAFENIB]	> 10 µM	> 10 µM	> 10 µM	> 10 µM	> 10 µM	–	–
> 10 µM	> 10 µM	> 10 µM	CS(=O)(=O)c1ccc(C(=O)Nc2ccc(Cl)c(-c3ccccn3)c2)c(Cl)c1 [VISMODEGIB]	> 10 µM	> 10 µM	> 10 µM	> 10 µM	> 10 µM	–	–
> 10 µM	> 10 µM	> 10 µM	COc1ccc(Cl)c(Nc2nc3ccccc3nc2NS(=O)(=O)c2cccc(NC(=O)C(C)(C)N)c2)c1 [XL147]	> 10 µM	> 10 µM	> 10 µM	> 10 µM	> 10 µM	–	–
> 10 µM	> 10 µM	> 10 µM	FC(F)c1nc2ccccc2n1-c1nc(N2CCOCC2)nc(N2CCOCC2)n1 [ZSTK-474]	> 10 µM	> 10 µM	> 10 µM	> 10 µM	> 10 µM	–	–

Structure (SMILES)	EC50 (MOLM-13 [4])	EC50 (MV4-11 [5])	EC50 (U937 [7])	EC50 (M07e [1])	EC50 (ML-2 [6])	EC50 (CHRF288-11 [8])	EC50 (CMK [10])	EC50 (CMS [11])	EC50 (M07e [20])	further results
O=C1CCC[C@@H]2[C@H]3CCC[N+]4([O-])CCC[C@@H](CN12)[C@@H]34 (stereo partly shown) [OXYMATRINE]	> 10 µM	> 10 µM	> 10 µM	–	> 10 µM	> 10 µM	> 10 µM	> 10 µM	0.058 µM	–
CS(=O)(=O)c1ccc(-c2cnc(N)c(C(=O)Nc3ccccc3)n2)cc1 [VE-821]	> 10 µM	> 10 µM	> 10 µM	–	> 10 µM	> 10 µM	> 10 µM	> 10 µM	6.7 µM	–

— article PMC6522510 (Nature Communications, 2019)
